Key:
Type in all cases: cell-based
[1] = tested on: Corynebacterium xerosis ATCC 373; test: MIC in microtitre plates, Corynebacterium xerosis; details: ATCC373, Table 1, 48 hours at 37° C., ≦20% growth
Method: (§1) Determination of Antimicrobial Activity in Accordance with the Microtitre Plate Method Determination of the Minimum Inhibitory Concentration (MIC value) in Microtitre Plates casein-soybean flour-peptone bouillon for the preparation of the precultures of the test bacteria and yeast. Corynebacterium xerosis ATCC 373 The test substances are predissolved in dimethyl sulfoxide (DMSO) and tested in a dilution series of 1:2. Bacteria and yeast are cultured overnight in CASO bouillon, the mould on mycological slant agar and rinsed off with 10 ml of 0.85% sodium chloride solution (+0.1% TritonX-100). All test organisms are adjusted to an organism count of 1-5*10^6 CFU/ml with 0.85% sodium chloride solution. The test substances are prepipetted into microtitre plates in an amount of 8 μl per well. Previously diluted test organism suspensions are diluted 1:100 in CASO bouillon (bacteria and yeast) and Sabouraud 2% glucose bouillon (mould) and added to the test substances in an amount of 192 μl per well. The test batches are incubated for 48 hours at 37° C. (bacteria and yeast) or for 5 days at 28° C. (mould). After incubation, the growth is determined by reference to the turbidity of the test batches (optical density) at 620 nm in a microplate reader. […]

[2] = tested on: Aspergillus niger ATCC 6275; test: MIC in microtitre plates, Aspergillus niger; details: Aspergillus niger, ATCC6275, 120 h; Table 1; ATCC 6275; 5 days at 28° C.; ≦20% growth; read-out: MIC Aspergillus niger
Method: (§2) Determination of Antimicrobial Activity in Accordance with the Microtitre Plate Method Determination of the Minimum Inhibitory Concentration (MIC value) in Microtitre Plates Mycological slant agar for the preculture of moulds. Aspergillus niger ATCC 6275 The test substances are predissolved in dimethyl sulfoxide (DMSO) and tested in a dilution series of 1:2. Bacteria and yeast are cultured overnight in CASO bouillon, the mould on mycological slant agar and rinsed off with 10 ml of 0.85% sodium chloride solution (+0.1% TritonX-100). All test organisms are adjusted to an organism count of 1-5*10^6 CFU/ml with 0.85% sodium chloride solution. The test substances are prepipetted into microtitre plates in an amount of 8 μl per well. Previously diluted test organism suspensions are diluted 1:100 in CASO bouillon (bacteria and yeast) and Sabouraud 2% glucose bouillon (mould) and added to the test substances in an amount of 192 μl per well. The test batches are incubated for 48 hours at 37° C. (bacteria and yeast) or for 5 days at 28° C. (mould). After incubation, the growth is determined by reference to the turbidity of the test batches (optical density) at 620 nm in a microplate reader. The minimum inhibitory concentration (MIC value) is the concentration of substance at which (compared with the growth of the control) an appreciable inhibition of the growth (≦20% growth) of the test organisms is ascertained. One microtitre plate is used for each test organism and substance concentration. All substances are tested in duplicate.

[3] = tested on: Candida albicans ATCC 10231; test: MIC in microtitre plates, Candida albicans; details: Candida albicans, ATCC10231; Table 1; ATCC 10231; 48 hours at 37° C.; ≦20% growth; read-out: MIC Candida albicans
Method: as §2, with “casein-soybean flour-peptone bouillon” for “Mycological slant agar”, “preparation” for “preculture”, “the precultures of the test bacteria and yeast. Candida albicans” for “moulds. Aspergillus niger”, “10231” for “6275”

[4] = tested on: Staphylococcus aureus ATCC 9144; test: MIC in microtitre plates, Staphylococcus aureus; details: ATCC9144, Table 1, 48 hours at 37° C., ≦20% growth
Method: as §1, with “Staphylococcus aureus” for “Corynebacterium xerosis”, “9144” for “373”

MIC [1]: 50 µg/mL
MIC [2]: 100 µg/mL
MIC [3]: 100 to 500 µg/mL
MIC [4]: 100 to 500 µg/mL
Compound: O=C(CC(=O)c1ccccc1O)c1ccco1 [Compound of formula (101)]
